Consider eight compounds from paper PMC11173529, “Structure–Activity Relationship Studies in a Series of Xanthine Inhibitors of SLACK Potassium Channels” (Molecules, 2024).

This test has as its target T1, WT hSLACK (Homo sapiens, UniProt Q5JUK3).
T1 construct: host or cells: CHO-K1
T1 sequence (Q5JUK3 1-1235 isoform Q5JUK3-3): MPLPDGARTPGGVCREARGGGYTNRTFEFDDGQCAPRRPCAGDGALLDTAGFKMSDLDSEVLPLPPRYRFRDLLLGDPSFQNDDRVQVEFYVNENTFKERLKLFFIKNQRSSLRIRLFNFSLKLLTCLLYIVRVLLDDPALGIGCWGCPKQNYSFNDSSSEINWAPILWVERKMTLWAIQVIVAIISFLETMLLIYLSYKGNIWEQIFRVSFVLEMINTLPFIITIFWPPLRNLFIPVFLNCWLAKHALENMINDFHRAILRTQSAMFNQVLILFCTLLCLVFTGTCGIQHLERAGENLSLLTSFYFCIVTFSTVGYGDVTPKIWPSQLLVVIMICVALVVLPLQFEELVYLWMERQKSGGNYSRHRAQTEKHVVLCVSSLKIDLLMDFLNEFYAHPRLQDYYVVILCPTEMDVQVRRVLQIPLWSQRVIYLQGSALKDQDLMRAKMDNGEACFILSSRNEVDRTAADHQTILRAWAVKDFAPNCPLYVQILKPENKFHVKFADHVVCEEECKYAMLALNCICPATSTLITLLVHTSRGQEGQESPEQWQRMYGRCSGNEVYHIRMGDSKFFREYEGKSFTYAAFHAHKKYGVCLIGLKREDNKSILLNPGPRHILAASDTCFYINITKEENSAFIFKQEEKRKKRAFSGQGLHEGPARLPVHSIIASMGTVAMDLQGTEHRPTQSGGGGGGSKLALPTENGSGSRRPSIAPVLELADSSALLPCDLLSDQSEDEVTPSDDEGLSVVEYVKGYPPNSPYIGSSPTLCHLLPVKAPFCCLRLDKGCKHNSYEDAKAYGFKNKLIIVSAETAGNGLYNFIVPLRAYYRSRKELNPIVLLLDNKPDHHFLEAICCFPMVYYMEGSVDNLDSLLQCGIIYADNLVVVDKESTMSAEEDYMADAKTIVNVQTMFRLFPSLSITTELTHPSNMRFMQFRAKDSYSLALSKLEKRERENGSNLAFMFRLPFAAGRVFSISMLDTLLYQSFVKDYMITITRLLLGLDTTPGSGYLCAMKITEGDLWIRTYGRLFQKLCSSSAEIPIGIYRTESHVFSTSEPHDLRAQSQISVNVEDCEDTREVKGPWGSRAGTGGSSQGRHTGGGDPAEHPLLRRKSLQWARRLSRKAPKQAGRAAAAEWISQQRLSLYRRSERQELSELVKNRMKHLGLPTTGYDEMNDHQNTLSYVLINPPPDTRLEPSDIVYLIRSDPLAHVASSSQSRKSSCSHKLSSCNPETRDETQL
The test is described as follows: Whole-cell automated patch-clamp (APC) in CHO cells stably expressing WT hSLACK. It counts as cell-based. Conditions: for IC50: whole-cell APC, CHO cells stably expressing WT hSLACK, averages n ≥ 3, read-out: SLACK IC50; for SLACK Imax: maximum inhibition at 30 µM test compound standardized to VU0606170 (set at 100%), WT hSLACK. As for the experimental part:
All new analogs were tested in our APC assay using CHO cells stably expressing WT SLACK using a concentration-response format with concentrations ranging from 0.125 to 30 μM in half-log steps and a minimum of three cells (replicates) per concentration series. […] Still, there were some notable results. For example, substitution at the 4-position was largely unfavorable regardless of the nature of the substituent (21, 24, 27, 30, and 33) apart from the 4-fluoro analog 18. […] As the trifluoromethyl group is similar in electronegativity to chlorine, but larger than both methyl and chlorine, perhaps the steric bulk of the trifluoromethyl is to blame for the poor potency of these analogs. With the exception of the fluoro (16–18) and cyano (28–30) analogs, substitution at the 3-position was favorable for SLACK activity, with 3-methoxy analog 32 standing out in this set.
Stably transfected monoclonal HEK293 cell lines expressing Slick, Maxi-K α1/β3, Maxi-K α1/β4, CaV3.2, GIRK 1/2, KV2.1, KV7.2, NaV1.7, and TASK-1 were generated as previously described. Stably transfected monoclonal HEK293 cell lines expressing hERG were generated as previously described. CHO-K1 cells expressing human Slack and disease-associated human Slack mutations, G288S and A934T, were generated by transfecting a PiggyBac TRE mammalian expression vector (VectorBuilder, Chicago, IL, USA) containing KCNT1. FuGENE 6 (Promega, Madison, WI, USA) transfection reagent and protocol, together with Opti-MEM (Thermo Fisher Scientific, Walkham, MA, USA), were utilized.
Automated patch-clamp recording was performed with a SyncroPatch 768 PE system (Nanion, Munich, Germany) as previously described. Whole-cell recordings were performed at room temperature. Cells were harvested by first washing with PBS without Mg^2+ or Ca^2+ (Gibco, Billings, MT, USA) to remove cell culture media, followed by dissociation with TryPLE (Gibco, Billings, MT, USA). Cells were then resuspended and diluted to 100,000 cells/mL in external solution. External solution contained 105 mM NaCl, 4 mM KCl, 1 mM MgCl2, 5 mM CaCl2, 10 mM HEPES, and 40 mM N-Methyl-D-glucamine chloride, titrated to pH of 7.4 and osmolarity of 300 mOsm/kg; internal solution contained 70 mM NaCl, 70 mM KF, 10 mM KCl, 5 mM EGTA, and 5 mM HEPES, titrated to a pH of 7.2 and osmolarity of 295 mOsm/kg.
The APC protocol was set as follows: Cells were held at a […] of −80 mV for 100 ms, then a ramp protocol was performed from −100 mV to 80 mV at 0.4 mV/ms, followed by holding the cell at −80 mV for another 100 ms, then steps were performed at −20 mV, 0 mV, +20 mV, +40 mV, and +60 mV for 100 ms of each step. Whole-cell currents were measured at 0 mV and normalized to current after external buffer addition. […] To obtain the concentration-response relationship graphs and IC50 values, we take the median value of the last 7 current amplitude values obtained for each set of data points collected for a given concentration at a particular step.

As for `CCCCN(Cc1ccc(F)cc1)c1nc2c(c(=O)n(Cc3cccc(OC)c3)c(=O)n2C)n1C` [Analog 80], the IC50 (usually the concentration that inhibits the measured activity by half) is 700 nM.

As to `COc1cccc(Cn2c(=O)c3c(nc(N(Cc4cccc(F)c4)CC4CC4)n3C)n(C)c2=O)c1` [Analog 79], the IC50 was 1000 nM. On the same count and under the same terms, the result for `CCCCN(Cc1cccc(F)c1)c1nc2c(c(=O)n(Cc3cccc(OC)c3)c(=O)n2C)n1C` [Analog 78] reads 1200 nM. For `CN(Cc1cccc(F)c1)c1nc2c(c(=O)n(Cc3ccccc3)c(=O)n2C)n1C` [Analog 48], the “SLACK Imax” value worked out at 100% and the half-maximal inhibitory concentration (IC50) came out at 890 nM.

Take `COc1cccc(Cn2c(=O)c3c(nc(N(Cc4ccc(F)cc4)CC4CC4)n3C)n(C)c2=O)c1` [Analog 81]: the IC50 was 1500 nM. Turning to `CCCCN(Cc1ccccc1)c1nc2c(c(=O)n(Cc3ccccc3)c(=O)n2C)n1C` [Analog 70], the “SLACK Imax” value is listed as 100% and the IC50 turned out to be 940 nM.

For the compound `Cn1c(N(Cc2ccccc2)CC2CC2)nc2c1c(=O)n(Cc1ccccc1)c(=O)n2C` [Analog 71], the “SLACK Imax” value stood at 100% and the IC50 turned out to be 980 nM. In the same order, the values of `COc1cccc(Cn2c(=O)c3c(nc(N(C)Cc4ccccc4)n3C)n(C)c2=O)c1` [Analog 32] are 100% and 800 nM.
